Patent publication US4508719A, “Hydroxyimino and alkoxyimino derivatives of 1,4-dihydropyridine and anti-hypertensive compositions” (Pierrel S.p.A., priority 1982, dated 1985)
Where two headings read alike, the source gives them in different places.

Tests used:
[1] = tested on: taenia coli of guinea pigs, depolarized, stimulated with CaCl2; test: Antagonistic activity to calcium in the taenia coli of guinea pigs (in vitro); type: cell-based, Hartley albino guinea pigs; details: for IC50: Cavia porcellus, read-out: Ca--antagonistic activity in vitro ED50
Description: Hartley albino guinea pigs of average weight 450 g are used. […] The compounds are allowed to stand in contact with the preparation for ten minutes. The activities ED50 are calculated from the maximum percentage of inhibition.

[2] = in vivo; details: mouse, iv
Description: Male CD1 mice from Charles River, weighing 25 g, are used. Compounds are administered intravenously (i.v.), dissolved in dimethylsulfoxide, and the volume of administration is 0.01 ml/10 g of body weight. The lethal dose, LD50 after seven days, is calculated according to the method of Litchfield and Wilcoxon (Exp. Ther. 96, 99 (1949)).

[3] = taenia coli, CaCl2 10^-3 M, ten minutes contact, from maximum percentage of inhibition (for 0265B, 0246B, 0247B, 0270B, 0224A independent of time of appearance)

COC(=O)C1=C(C)NC(C)=C(C(=O)OC)C1c1ccccc1[N+](=O)[O-] [Nifedipine, reference compound]
IC50 [1]: 2.6 nM

COC(=O)C1=C(C)NC(C)=C(C(C)=NOC(C)C)C1c1cccc([N+](=O)[O-])c1 (centres unmarked) [0265B]
LD50 at 168 h [2]: 27.6 mg/kg
IC50 [1, 3]: 4.4 nM
inhibition of contractions due to CaCl2 after repeated washing of the tissue ([1]; taenia coli): increases progressively in spite of repeated washing of the tissue

CCOC(=O)C1=C(C)NC(C)=C(C(=O)OC)C1c1cccc([N+](=O)[O-])c1 (centres unmarked) [Nitrendipine, reference compound]
LD50 at 168 h [2]: 34.5 mg/kg
IC50 [1, 3]: 1.9 nM

COC(=O)C1=C(C)NC(C)=C(C(C)=NOCc2ccccc2)C1c1cccc([N+](=O)[O-])c1 (centres unmarked) [0247B]
LD50 at 168 h [2]: 28.9 mg/kg
IC50 [1, 3]: 4.8 nM
inhibition of contractions due to CaCl2 after repeated washing of the tissue ([1]; taenia coli): increases progressively in spite of repeated washing of the tissue

COC(=O)C1=C(C)NC(C)=C(C(C)=NOCCN2CCCCC2)C1c1cccc([N+](=O)[O-])c1 (centres unmarked) [0276B]
LD50 at 168 h [2]: 22.7 mg/kg
IC50 [1, 3]: 220 nM

C=CCON=C(C)C1=C(C)NC(C)=C(C(=O)OC)C1c1cccc([N+](=O)[O-])c1 (centres unmarked) [0245B]
LD50 at 168 h [2]: 35.4 mg/kg
IC50 [1, 3]: 4.7 nM

COC(=O)C1=C(C)NC(C)=C(C(C)=NO)C1c1cccc([N+](=O)[O-])c1 (centres unmarked) [0227A, Methyl 2,6-dimethyl-3-(1-hydroxyimino)ethyl-4-(3-nitrophenyl)-1,4-dihydropyridine-5-carboxylate]
LD50 at 168 h [2]: 15.2 mg/kg
IC50 [1, 3]: 270 nM

COC(=O)C1=C(C)NC(C)=C(C(=O)OCCN(C)Cc2ccccc2)C1c1cccc([N+](=O)[O-])c1 (centres unmarked) [Nicardipine, reference compound]
LD50 at 168 h [2]: 17.4 mg/kg
IC50 [1, 3]: 2.3 nM

CCOCCON=C(C)C1=C(C)NC(C)=C(C(=O)OC)C1c1cccc([N+](=O)[O-])c1 (centres unmarked) [0254B]
LD50 at 168 h [2]: 35 mg/kg
IC50 [1, 3]: 5.9 nM

COC(=O)C1=C(C)NC(C)=C(C(C)=NOC2CCCC2)C1c1cccc([N+](=O)[O-])c1 (centres unmarked) [0270B]
LD50 at 168 h [2]: 70.3 mg/kg
IC50 [1, 3]: 5.6 nM
inhibition of contractions due to CaCl2 after repeated washing of the tissue ([1]; taenia coli): increases progressively in spite of repeated washing of the tissue

CCOCCON=C(COC)C1=C(C)NC(C)=C(C(=O)OC)C1c1cccc([N+](=O)[O-])c1 (centres unmarked) [0286C]
LD50 at 168 h [2]: > 160 mg/kg
IC50 [1, 3]: 370 nM

CCCCON=C(C)C1=C(C)NC(C)=C(C(=O)OC)C1c1cccc([N+](=O)[O-])c1 (centres unmarked) [0246B]
LD50 at 168 h [2]: 37.5 mg/kg
IC50 [1, 3]: 7 nM
inhibition of contractions due to CaCl2 after repeated washing of the tissue ([1]; taenia coli): increases progressively in spite of repeated washing of the tissue

CON=C(C)C1=C(C)NC(C)=C(C(=O)OC)C1c1cccc([N+](=O)[O-])c1 (centres unmarked) [0251A, Methyl 2,6-dimethyl-3-(1-methoxyimino)ethyl-4-(3-nitrophenyl)-1,4-dihydropyridin-5-carboxylate]
LD50 at 168 h [2]: 27.3 mg/kg
IC50 [1, 3]: 26 nM

CCOC(=O)CON=C(C)C1=C(C)NC(C)=C(C(=O)OC)C1c1cccc([N+](=O)[O-])c1 (centres unmarked) [0234A, Methyl 2,6-dimethyl-3-[1-(ethoxycarbonyl)methoxyimino]ethyl-4-(3-nitrophenyl)-1,4-dihydro-pyridin-5-carboxylate]
LD50 at 168 h [2]: 17.3 mg/kg
IC50 [1, 3]: 29 nM

CCON=C(C)C1=C(C)NC(C)=C(C(=O)OC)C1c1cccc([N+](=O)[O-])c1 (centres unmarked) [0235A, Methyl 2,6-dimethyl-3-(1-ethoxyimino)ethyl-4-(3-nitrophenyl)-1,4-dihydropyridin-5-carboxylate]
LD50 at 168 h [2]: 30.6 mg/kg
IC50 [1, 3]: 7.4 nM

COC(=O)C1=C(C)NC(C)=C(C(C)=NOCCN(C)Cc2ccccc2)C1c1cccc([N+](=O)[O-])c1 (centres unmarked) [0224A, Methyl 2,6-dimethyl-3-[1-(2-N-benzyl-N-methylamino)ethoxy-imino]ethyl-4-(3-nitrophenyl)-1,4-dihydropyridin-5-carboxylate]
LD50 at 168 h [2]: 3.3 mg/kg
IC50 [1, 3]: 18 nM
inhibition of contractions due to CaCl2 after repeated washing of the tissue ([1]; taenia coli): increases progressively in spite of repeated washing of the tissue

COC(=O)C1=C(C)NC(C)=C(C(C)=NOCCN(C)C)C1c1cccc([N+](=O)[O-])c1 (centres unmarked) [0274B]
LD50 at 168 h [2]: 38.3 mg/kg
IC50 [1, 3]: 510 nM
